Data set [1] has as its target T1, pirin protein in SK-OV-3 human ovarian cancer cells (Homo sapiens, UniProt O00625).
T1 construct: endogenous in cells; host or cells: SK-OV-3
T1 sequence (O00625 1-290): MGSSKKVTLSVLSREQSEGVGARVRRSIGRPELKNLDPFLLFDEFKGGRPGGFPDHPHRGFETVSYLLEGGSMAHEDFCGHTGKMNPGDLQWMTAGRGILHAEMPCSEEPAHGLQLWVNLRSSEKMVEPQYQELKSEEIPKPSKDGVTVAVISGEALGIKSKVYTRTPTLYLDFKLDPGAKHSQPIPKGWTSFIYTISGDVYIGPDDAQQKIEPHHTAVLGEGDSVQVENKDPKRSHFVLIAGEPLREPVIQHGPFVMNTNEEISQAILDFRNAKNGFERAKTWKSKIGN
Briefly: Pirin depletion in SK-OV-3 cells (immunoblot / capillary electrophoresis immunoassay). The format is cell-based. As to conditions: SK-OV-3 cells. As for the experimental part:
in vivo in athymic mice to increase its tumorigenicity and reliability as a xenograft, and used within 10 passages of banked stocks.
Prior to use, the cells were analyzed by short tandem repeat (STR) profiling. Polymorphic STR loci were amplified using a polymerase chain reaction (PCR) primer set. The PCR product (each locus being labelled with a different fluorophore) was analyzed simultaneously with size standards using automated fluorescent detection. The number of repeats at 10 different loci (as recommended by the American Type Culture Collection, ATCC) was used to define the STR profile and this was cross-referenced with online databases to confirm authenticity. […]
the ATCC reference line (LGC Promochem, UK). […]
nested PCR protocol (Venor GeM kit, Minerva Biolabs, Germany). Cells were grown in DMEM/10 % FCS, 2 mM glutamine and nonessential amino acids in 5 % CO2.
SK-OV-3 cells were treated as for each experimental condition. Cells were harvested and lysed by scraping in urea lysis buffer (20 mM HEPES pH 8.0, 9 M urea, 1 mM sodium orthovanadate, 2.5 mM sodium pyrophosphate, 1 mM β-glycerophosphate). […]
of samples was determined using a bicinchoninic acid (BCA) protein assay kit (Thermo Fisher Scientific). Western blotting was carried out as previously described.10 Pirin and GAPDH antibodies were obtained from Abcam (ab157212) and Merck […]
Samples were treated, harvested and lysed as described above. A total of 5 μL of 0.2 mg/mL protein was loaded into plates and capillary western analysis was carried out according to the manufacturer’s instructions (ProteinSimple WES). The data was analyzed with the Compass software (ProteinSimple).
Sigma-Aldrich and Cell Signaling Technology, respectively.
10 Sharp SY, Boxall K, Rowlands M, Prodromou C, Roe SM, Maloney A, Powers M, Clarke PA, Box G, Sanderson S, Patterson L, Matthews TP, Cheung KM, Ball K, Hayes A, Raynaud F, Marais R, Pearl L, Eccles S, Aherne W, McDonald E, Workman P. In vitro biological characterization of a novel, synthetic diaryl pyrazole resorcinol class of heat shock protein 90 inhibitors.
A general note: In western blotting, separated proteins are transferred to a membrane and probed.

In data set [2] the target is T2, CRBN-DDB1 complex (Homo sapiens, UniProt Q96SW2).
T2 construct: His6-ZZ-HRV3C (N); made in house; host or cells: Sf9 insect cells (baculovirus co-infection)
Briefly: CRBN/DDB1 fluorescence polarization competition assay. It counts as binding. As for the experimental part: CRBN/DDB1 Fluorescence Polarization Assay […]
Unless otherwise stated, the aqueous assay buffer contained 0.02 M HEPES((4-(2-hydroxyethyl)-1-piperazineethanesulfonic acid)) pH 8.0, 0.15 M NaCl, 0.5 mM TCEP ((tris(2-carboxyethyl)phosphine)), 0.05% Tween 20. The assay was conducted using 384 well black plates (ProxiPlate F Plus, Perkin-Elmer, Massachusetts, USA).
Plate Reader. […] Fluorescence […]
polarization was measured in units of millipolarization (mP) and are background corrected. Data were plotted and analyzed using […]
All experiments were performed in triplicate unless otherwise stated. Values are quoted as the geometric […]
Each graph is a representative example of a single biological repeat unless otherwise stated.
CRBN/DDB1 Protein Expression & Purification
Protein expression and purification methods adapted from Lopez-Girona et al.5 Full length human CRBN (accession number NM016302) was amplified by PCR & inserted downstream of the polyhedrin promoter of a pFBDM expression vector which had been modified to introduce a N-terminal His6-ZZ-HRV3C tag. Full length human DDB1 (accession number NM001923) was amplified by PCR with primers which introduced a C-terminal StrepTag and inserted downstream of the p10 promoter of a separate pFBDM expression vector. Baculoviruses were generated according to Bac-to-Bac protocols (Invitrogen) and used to co-infect Sf9 cells grown @ 27 °C in shaker flasks using Insect-XPRESS media (Lonza). Cells were harvested 48 hours post infection and frozen. For purification, pellets were thawed & resuspended in 5 volumes of Histrap buffer A (see below) and lysed […]
Superdex 200 (HiLoad 26/600), ResourceQ (6 mL) and finally a second Superdex 200 (HiLoad 26/600) column. All columns were from GE Healthcare and all purification steps were performed @ 4 °C. HisTrap buffer A: 50mM Tris (2-Amino-2-(hydroxymethyl)propane-1,3-diol), 500mM NaCl, 0.5mM TCEP ((tris(2-carboxyethyl)phosphine), 5% glycerol, pH 8.0. HisTrap Buffer B: + 250 mM imidazole. Superdex 200 buffer: 50mM Tris, 200mM NaCl, 0.5mM TCEP, 5% glycerol, pH 8.0. Resource Q buffer A: 50mM Tris, 0.5mM TCEP, 5% Glycerol, pH8.0. Resource Q buffer B + 1M NaCl.
California, USA) to prepare CRBN/DDB1 concentrations from 0.1 to 500 nM in 10 µL final assay volume containing 5 nM FP- […]
point prior to analysis. The KD was calculated using non-linear regression and a one-site specific binding model.
Analysis of competition assay FP-probe bound fraction […]
fb=probe bound fraction, KD=probe dissociation constant, L0=probe concentration, R0=protein concentration, Ki=ligand […]
CRBN/DDB1 Competition Assay
Compounds as solutions in DMSO were dispensed using an ECHO 550 Liquid Handler (Labcyte Inc).
Tracer controls (5 nM FP-probe S18 assay buffer only) and bound tracer controls (5 nM and 80 nM CRBN/DDB1) were included on each assay plate . Plates were incubated overnight at 4 °C before warming to room temperature and fluorescence polarization measured using an EnVision plate reader (Perkin -Elmer, Massachusetts, USA). IC 50 values […]
Table S2. CRBN/DDB1 Control Compounds

Data set [3] addresses T3, pirin (Homo sapiens, UniProt O00625).
T3 sequence (O00625 1-290): T1 sequence (O00625 1-290)
Briefly: Pirin SPR (surface plasmon resonance) binding.

Data set [4] in a line: LogD7.4 determination by RP-HPLC. As to conditions: pH 7.4.

Molecules are shown by their SMILES. Like-named read-outs stand apart in the source and are kept apart here.

A word on the Ki: it is a dissociation constant, usually derived from enzyme kinetics or from competition with a known ligand. Usually Kd stands for the free concentration of one partner at which half of the binding sites on the other are occupied at equilibrium, for simple one-to-one binding. Higher therefore signals a looser complex. Broadly, the chromatographic logD is a lipophilicity value derived from retention on a column. A lower chromatographic logD goes with a more hydrophilic compound. For `O=C1CCC(N2C(=O)c3cccc(OCCOCCOCCN4CCN(Cc5ccc6cc(C(=O)Nc7cc(NC(=O)c8ccc9c(c8)OCCO9)ccc7Cl)ccc6n5)CC4)c3C2=O)C(=O)N1` (stereo not drawn) [PDP 16, N-(2-Chloro-5-(2,3-dihydrobenzo[b][1,4]dioxine-6-carboxamido)phenyl)-2-((4-(2-(2-(2-((2-(2,6-dioxopiperidin-3-yl)-1,3-dioxoisoindolin-4-yl)oxy)ethoxy)ethoxy)ethyl)piperazin-1-yl)methyl)quinoline-6-carboxamide], the Pirin degradation entry in data set [1] (50 nM, 2 h exposure, Figure 3A) is reported as “near complete pirin degradation”. Besides, the “Concentration-response shape with increasing concentration” value in data set [1] (50 to 1500 nM, up to 24 h) is “clear hook effect”. Also, the “Lowest concentration with pirin degradation activity” value in data set [1] (2 h exposure, Figure 3B) amounted to 0.5 nM. In addition, the IC50 was 323 nM in data set [2] (CRBN/DDB1 FP IC50, single repeat N=2, best-fit value, variable slope four parameters); 715 nM in data set [2] (best-fit value, variable slope four parameters, read-out: CRBN/DDB1 FP IC50, single repeat N=1); 519 nM in data set [2] (best-fit value, variable slope four parameters, read-out: CRBN/DDB1 FP IC50, single repeat N=3); 493 nM in data set [2] (column statistics, read-out: CRBN/DDB1 FP pIC50, mean of 3 values (unrounded) (converted)); 490 nM in data set [2] (displacement of thalidomide derived fluorescent probe, geometric mean n = 3, read-out: CRBN/DDB1 FP IC50). In addition, the inhibition constant (Ki) in data set [2] (calculated from geometric mean CRBN-DDB1 IC50 and FP-probe KD) was 120 nM. The Kd in data set [3] (Pirin SPR KD, equilibrium analysis, one site specific binding model, geometric mean n = 3) is 55 nM; in data set [3] (Pirin SPR KD, representative single repeat, best-fit value, one site specific binding) it was 56.3 nM; in data set [3] (Pirin SPR pKD, mean of 3 values (unrounded), column statistics) it was 54.5 nM. Further, in data set [3] (SPR), the “Increase in affinity for recombinant pirin compared to PDP 10” value came out at 4.2 fold. In data set [3] (SPR), the “Measured Rmax/Theoretical Rmax” value was 0.39. In addition, the chromatographic logD in data set [4] worked out at 2.7.
